Laboratory results taken from article PMC7807051, “Modulation of cAMP metabolism for CFTR potentiation in human airway epithelial cells” (Scientific Reports, 2021).
pEC50, pIC50: −log10 of the molar value. Read-outs that look alike come from different tables or passages of the source.

Assays:
CFTR [1] = assay: In vitro CFTR membrane potential assay in Calu-3 cells; type: cell-based, human; conditions: for pEC50: Calu-3 cells, cAMP inducer alone
Procedure: (§1) An in vitro CFTR membrane potential assay was performed on Calu-3 cells and primary human bronchial epithelial cells, from two independent donors, cultured at 37 °C as previously described. All human samples were collected from consented individuals under ethics approval granted by Hamilton Integrated Research Ethics Board (Project Number 5099-T).
Calu-3 cells were grown for 21 days on 96-well plates and primary HBECs were grown for 14 days under air–liquid interface conditions on collagen-coated (Sigma-Aldrich) 6.5 mm Transwell Inserts (Corning). All cells were washed with HBSS prior to experimental conditions. After washing with HBSS, cells were loaded with BLUE Membrane Potential Dye (Molecular Devices, #R8042) dissolved in 37 °C chloride-free buffer (NMDG Gluconate Buffer – 150 mM NMDG-gluconate, 3 mM KCl, 10 mM HEPES, pH 7.35, 300 mOsm). Immediately after dye loading, CFTR activity measurements were taken. CFTR activity measurements are fluorescent readouts for detecting ion channel activity. CFTR inhibition was performed with CFTRinh-172 (10 μM) for all experiments to attribute changes in fluorescence as CFTR channel activity. This assay has been validated using proof of concept studies where results obtained from this assay were able to recapitulate findings obtained from direct measurements of ion channel activity using Ussing chambers. At the end of this assay, raw data was exported for statistical analysis.
For Calu-3 cells, measurements were taken during baseline (40 min), cAMP elevation (30 min), and CFTR inhibition (20 min). cAMP elevation was performed using forskolin or isoproterenol (0.0005–50 μM). For assays with ABCC4 or PDE-4 inhibitors, a pre-incubation with the inhibitors (30 min) in the plate reader was performed prior to cAMP elevation. CFTR modulator VX-770 was used at 1 μM. CFTR activity was determined by dividing a single membrane potential peak measurement after the ABCC4 or PDE-4 inhibition and cAMP elevation additions to the stabilized baseline over DMSO control.
For in vitro CFTR membrane potential assays, in Calu-3 cells, values were normalized to the averaged baseline over averaged vehicle (DMSO) control of all biological replicates. SD was calculated using data from biological replicates (n = 4–8). An area under the curve (AUC), half-maximal concentration (EC50), […] (Emax), and baseline analysis was performed for each individual replicate then averaged together. The AUC analysis is an aggregate measure of sensitivity and maximal response, allowing for the observation of the total net responsiveness of the cells. The AUC analysis was done by normalizing the individual replicates to the bottom most value of the averaged vehicle control. In primary HBECs, six independent measurements were taken within a single Transwell insert. The value is the average of at least six measurements. These values were normalized to the averaged baseline over the averaged vehicle (DMSO) control. SD was calculated by treating the six measurements as independent, with additional technical replicates (n = 6–18). An AUC and max peak analysis were performed for each measurement, then averaged together. The max peak analysis was the max CFTR activity achieved during the drug addition step.
In order to compare the independent experiments performed, a fold-change analysis using individual AUC, EC50, and Emax, determined from their respective concentration–response curves, was performed and was normalized to the averaged DMSO vehicle control. A one-way ANOVA with subsequent post-hoc test or a paired t-test was performed. Statistical analysis was performed using GraphPad Prism 6.

CFTR [2] = test system: CFTR; set-up: method as in PMID 24106801; conditions: primary non-CF HBECs; cited from earlier work
CFTR [3] = target: T1, CFTR (Homo sapiens, UniProt P13569); assay: In vitro CFTR membrane potential assay in primary human bronchial epithelial cells (air–liquid interface); type: cell-based; conditions: primary HBECs, one donor sample; forskolin 10 μM; VX-770 1 μM, MK-571 1.8 μM, Roflumilast 1 μM
T1 construct: endogenous in cells; host or cells: primary human bronchial epithelial cells from two donors, air–liquid interface
T1 sequence (P13569 whole entry): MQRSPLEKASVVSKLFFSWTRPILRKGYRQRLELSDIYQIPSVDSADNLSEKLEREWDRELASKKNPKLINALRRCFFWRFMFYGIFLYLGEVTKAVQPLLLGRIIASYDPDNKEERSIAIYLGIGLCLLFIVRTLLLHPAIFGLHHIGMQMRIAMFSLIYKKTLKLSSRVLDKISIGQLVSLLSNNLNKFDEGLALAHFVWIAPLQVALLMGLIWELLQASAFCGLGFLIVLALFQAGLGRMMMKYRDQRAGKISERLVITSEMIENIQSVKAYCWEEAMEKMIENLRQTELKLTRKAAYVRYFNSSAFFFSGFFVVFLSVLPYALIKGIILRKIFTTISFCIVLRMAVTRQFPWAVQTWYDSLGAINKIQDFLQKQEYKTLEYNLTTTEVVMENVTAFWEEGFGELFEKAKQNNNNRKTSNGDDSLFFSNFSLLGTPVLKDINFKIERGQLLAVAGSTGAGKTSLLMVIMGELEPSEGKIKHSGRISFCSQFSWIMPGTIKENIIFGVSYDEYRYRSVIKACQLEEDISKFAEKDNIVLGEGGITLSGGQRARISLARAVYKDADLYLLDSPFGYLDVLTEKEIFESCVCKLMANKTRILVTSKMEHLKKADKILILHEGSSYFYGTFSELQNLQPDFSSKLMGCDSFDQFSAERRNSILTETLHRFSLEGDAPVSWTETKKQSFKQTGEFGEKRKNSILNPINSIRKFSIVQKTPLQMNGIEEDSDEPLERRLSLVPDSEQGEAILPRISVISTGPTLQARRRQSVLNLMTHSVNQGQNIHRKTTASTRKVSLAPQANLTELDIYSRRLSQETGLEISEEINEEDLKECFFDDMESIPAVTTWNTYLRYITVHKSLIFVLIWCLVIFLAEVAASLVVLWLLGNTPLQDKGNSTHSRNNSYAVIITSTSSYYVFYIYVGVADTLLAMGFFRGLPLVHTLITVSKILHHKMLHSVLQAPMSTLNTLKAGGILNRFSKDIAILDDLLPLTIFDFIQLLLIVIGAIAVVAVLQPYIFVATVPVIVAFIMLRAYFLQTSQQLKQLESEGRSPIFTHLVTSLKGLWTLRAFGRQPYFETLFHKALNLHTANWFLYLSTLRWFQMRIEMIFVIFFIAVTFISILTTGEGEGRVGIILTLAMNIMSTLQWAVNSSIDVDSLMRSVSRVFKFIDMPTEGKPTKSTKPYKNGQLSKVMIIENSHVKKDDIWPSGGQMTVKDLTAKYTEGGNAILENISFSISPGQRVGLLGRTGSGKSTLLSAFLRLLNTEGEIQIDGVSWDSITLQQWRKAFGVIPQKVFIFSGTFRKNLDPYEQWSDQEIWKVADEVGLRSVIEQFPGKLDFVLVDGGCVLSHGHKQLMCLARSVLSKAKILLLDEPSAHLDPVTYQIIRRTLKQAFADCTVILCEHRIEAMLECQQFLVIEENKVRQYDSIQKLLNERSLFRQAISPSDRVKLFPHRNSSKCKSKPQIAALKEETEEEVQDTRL
Procedure: as §1
Calu-3 cells were grown for 21 days on 96-well plates and primary HBECs were grown for 14 days under air–liquid interface conditions on collagen-coated (Sigma-Aldrich) 6.5 mm Transwell Inserts (Corning). All cells were washed with HBSS prior to experimental conditions. […] CFTR activity measurements are fluorescent readouts for detecting ion channel activity. CFTR inhibition was performed with CFTRinh-172 (10 μM) for all experiments to attribute changes in fluorescence as CFTR channel activity. […]
For primary HBECs, measurements were taken during baseline (8 min), drug additions (40 min), and CFTR inhibitions (18 min). cAMP elevation was performed using forskolin (10 μM). […] CFTR activity was determined by averaging six independent measurements within a single Transwell insert. […]
For in vitro CFTR membrane potential assays, in Calu-3 cells, values were normalized to the averaged baseline over averaged vehicle (DMSO) control of all biological replicates. SD was calculated using data from biological replicates (n = 4–8). […]

CFTR [4] = test system: CFTR; set-up: method as in PMID 24106801; conditions: Calu-3 cells; cited from earlier work
ABCC4 [5] = target: T2, ABCC4 (Homo sapiens, UniProt O15439); assay: In vitro extracellular cAMP assay of ABCC4 inhibitors in Calu-3 cells; type: cell-based; conditions: IBMX 20 μM pre-treatment, forskolin 10 μM, normalized to IBMX + forskolin, read-out: half maximal inhibitory concentration (IC50), extracellular cAMP
T2 construct: ABCC4 was present in both HBEC6-KT and Calu-3 cells at all-time points, indicated by the bands present at 150 kDa; endogenous in cells; host or cells: HBEC6-KT (immortalized human bronchial epithelial cells)
T2 sequence (O15439 1-1325): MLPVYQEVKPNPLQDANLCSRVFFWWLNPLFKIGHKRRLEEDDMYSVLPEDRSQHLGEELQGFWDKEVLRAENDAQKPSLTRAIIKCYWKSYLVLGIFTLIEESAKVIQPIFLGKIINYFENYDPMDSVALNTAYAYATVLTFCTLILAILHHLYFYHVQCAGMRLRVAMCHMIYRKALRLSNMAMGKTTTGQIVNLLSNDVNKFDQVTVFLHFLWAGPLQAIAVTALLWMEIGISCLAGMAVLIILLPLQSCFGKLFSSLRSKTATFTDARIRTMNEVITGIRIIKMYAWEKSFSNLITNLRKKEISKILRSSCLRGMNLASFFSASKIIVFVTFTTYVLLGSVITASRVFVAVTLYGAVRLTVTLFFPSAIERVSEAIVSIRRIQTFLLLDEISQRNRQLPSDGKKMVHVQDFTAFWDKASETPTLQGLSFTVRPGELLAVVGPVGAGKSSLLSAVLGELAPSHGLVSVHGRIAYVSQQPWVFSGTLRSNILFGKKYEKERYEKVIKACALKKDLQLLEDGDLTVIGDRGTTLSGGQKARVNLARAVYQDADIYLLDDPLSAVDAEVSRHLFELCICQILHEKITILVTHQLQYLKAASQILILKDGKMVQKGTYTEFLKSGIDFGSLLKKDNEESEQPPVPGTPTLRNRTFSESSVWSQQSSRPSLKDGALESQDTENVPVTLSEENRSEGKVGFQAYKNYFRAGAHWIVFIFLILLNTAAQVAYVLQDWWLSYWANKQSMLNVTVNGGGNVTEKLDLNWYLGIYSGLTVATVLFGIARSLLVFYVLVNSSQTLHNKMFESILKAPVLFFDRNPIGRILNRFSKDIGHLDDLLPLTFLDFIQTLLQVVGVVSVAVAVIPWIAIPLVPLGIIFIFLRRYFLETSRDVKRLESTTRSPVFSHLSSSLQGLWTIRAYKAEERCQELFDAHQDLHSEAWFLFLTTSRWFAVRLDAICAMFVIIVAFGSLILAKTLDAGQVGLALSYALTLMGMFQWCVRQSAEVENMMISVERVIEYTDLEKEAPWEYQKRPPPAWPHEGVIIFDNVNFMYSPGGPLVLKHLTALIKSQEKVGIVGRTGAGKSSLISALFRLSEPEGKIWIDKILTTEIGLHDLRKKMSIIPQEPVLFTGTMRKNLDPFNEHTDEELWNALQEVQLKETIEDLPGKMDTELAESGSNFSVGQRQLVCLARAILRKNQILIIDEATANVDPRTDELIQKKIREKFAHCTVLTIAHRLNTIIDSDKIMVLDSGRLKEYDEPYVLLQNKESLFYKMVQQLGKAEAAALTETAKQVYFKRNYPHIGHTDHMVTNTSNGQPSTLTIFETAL
Procedure: Cell culture supernatants were assessed for cAMP levels 24 h post-treatment.
(§2) Cells were pretreated with IBMX (20 μM) for 2 h prior to experimental conditions. After the pre-treatment of IBMX, cells were treated with ABCC4 inhibitors (0.01–100 μM) or DMSO for 30 min. Following these exposures, the cells were treated with forskolin (10 μM) for 6 h and cell-culture supernatants were collected for analysis of extracellular cAMP. The negative control was IBMX alone and the positive control was IBMX and forskolin.
(§3) For the in vitro extracellular cAMP assay, values were normalized to the positive control (IBMX and forskolin) and the half maximal inhibitory concentration (IC50) was determined. SD was calculated using data from biological replicates (n = 4–5).

ABCC4 [6] = target: T2, ABCC4; assay: In vitro extracellular cAMP assay of ABCC4 inhibitors in HBEC6-KT cells; type: cell-based; conditions: IBMX 20 μM pre-treatment, forskolin 10 μM, normalized to IBMX + forskolin, read-out: half maximal inhibitory concentration (IC50), extracellular cAMP
Procedure: as §2, §3
Cell culture supernatants were assessed for cAMP levels 24h post-treatment.

[7] = Calu-3, forskolin (FSK) curve with agent vs DMSO control
[8] = Calu-3, forskolin (FSK) curve with agent vs DMSO control, VX-770 1 μM, MK-571 1.8 μM, Ceefourin-1 4.8 μM, Roflumilast 1 μM, Rolipram 10 μM, IBMX 100 μM
[9] = Calu-3, isoproterenol (ISO) curve with agent vs DMSO control
[10] = Calu-3, isoproterenol (ISO) curve with agent vs DMSO control, same agent concentrations as E5
[11] = read-out: half maximal effective concentration (EC50), CFTR activity

Row | Structure (SMILES) | Baseline of concentration–response curve, CFTR activity (CFTR [1]; [7]) | EC50 of concentration–response curve, CFTR activity (CFTR [1]; [7]) | Emax of concentration–response curve, CFTR activity (CFTR [1]; [7]) | AUC of concentration–response curve, CFTR activity (CFTR [1]; [8]) | Baseline of concentration–response curve, CFTR activity (CFTR [1]; [9]) | EC50 of concentration–response curve, CFTR activity (CFTR [1]; [9]) | Emax of concentration–response curve, CFTR activity (CFTR [1]; [9]) | AUC of concentration–response curve, CFTR activity (CFTR [1]; [10]) | maximal degree of change for CFTR activity (CFTR [1]; Calu-3, ISO compared with FSK, inducers alone) | pEC50 (CFTR [1]; [11]) | pEC50 (CFTR [1]; value in picture, no unit, read-out: EC50, CFTR activity (Figure 3)) | CFTR activation (CFTR [2]) | AUC of CFTR activity time course compared with VX-770 alone (CFTR [3]) | max peak of CFTR activity compared with VX-770 alone (CFTR [3]) | CFTR potentiation beyond max FSK stimulation (CFTR [4]) | pIC50 (ABCC4 [5]) | pIC50 (ABCC4 [6])
1 | CN(C)C(=O)CCSC(SCCC(=O)O)c1cccc(/C=C/c2ccc3ccc(Cl)cc3n2)c1 (stereo not drawn) [MK-571] | No combination of ABCC4 inhibitor and cAMP-elevating agent changed CFTR activity | No combination of ABCC4 inhibitor and cAMP-elevating agent changed CFTR activity | No combination of ABCC4 inhibitor and cAMP-elevating agent changed CFTR activity | No combination of ABCC4 inhibitor and cAMP-elevating agent changed CFTR activity | No combination of ABCC4 inhibitor and cAMP-elevating agent changed CFTR activity | No combination of ABCC4 inhibitor and cAMP-elevating agent changed CFTR activity | No combination of ABCC4 inhibitor and cAMP-elevating agent changed CFTR activity | No combination of ABCC4 inhibitor and cAMP-elevating agent changed CFTR activity | – | – | – | – | – | – | – | – | –
2 | CC(C)NCC(O)c1ccc(O)c(O)c1 (stereo not drawn) [ISO, isoproterenol] | – | – | – | – | – | – | – | – | greater | 7.15 | 7.18 | – | – | – | – | – | –
3 | C=C[C@@]1(C)CC(=O)[C@]2(O)[C@@]3(C)[C@@H](O)CCC(C)(C)[C@@H]3[C@H](O)[C@H](OC(C)=O)[C@@]2(C)O1 [FSK, forskolin] | – | – | – | – | – | – | – | – | – | 6.72 | – | – | – | – | – | – | –
4 | O=C(Nc1c(Cl)cncc1Cl)c1ccc(OC(F)F)c(OCC2CC2)c1 [Roflumilast] | not different | not different | not different | not FSK | not different | not different | not different | significant increases | – | – | – | led to CFTR activation | significantly greater than VX-770 alone | significantly greater than VX-770 alone | did not potentiate CFTR activity beyond the max stimulation that resulted from the addition of FSK | – | –
5 | Cn1c(CSc2nc3ccccc3s2)n[nH]c1=S [Ceefourin-1] | No combination of ABCC4 inhibitor and cAMP-elevating agent changed CFTR activity | No combination of ABCC4 inhibitor and cAMP-elevating agent changed CFTR activity | No combination of ABCC4 inhibitor and cAMP-elevating agent changed CFTR activity | No combination of ABCC4 inhibitor and cAMP-elevating agent changed CFTR activity | No combination of ABCC4 inhibitor and cAMP-elevating agent changed CFTR activity | No combination of ABCC4 inhibitor and cAMP-elevating agent changed CFTR activity | No combination of ABCC4 inhibitor and cAMP-elevating agent changed CFTR activity | No combination of ABCC4 inhibitor and cAMP-elevating agent changed CFTR activity | – | – | – | – | – | – | – | 6.15 | 5.32
6 | COc1ccc(C2CNC(=O)C2)cc1OC1CCCC1 (stereo not drawn) [Rolipram] | not different | not different | not different | not FSK | not different | not different | not different | significant increases | – | – | – | – | – | – | – | – | –
7 | CC(C)Cn1c(=O)n(C)c(=O)c2[nH]cnc21 [IBMX] | – | – | – | Significant increases | significant increases | – | – | Significant increases | – | – | – | – | – | – | – | – | –
